Literature values as cited in patent US20190298799A1, “CONTROLLED-RELEASE APOPTOSIS MODULATING COMPOSITIONS AND METHODS FOR THE TREATMENT OF OTIC DISORDERS” (Otonomy, Inc., priority 2008, published 2019).

Experiments:
[1] = test system: neurons and otic hair cells
cochlear culture = conditions: culture first treated with the inhibitor, then neomycin and/or cisplatin

CC(=O)N[C@@H](CC(C)C)C(=O)N[C@@H](CC(C)C)C(=O)N[C@H](C=O)CCCNC(=N)N [Leupeptine, leupeptine]
protection from aminoglycoside ototoxicity [1]: protects neurons and otic hair cells from aminoglycoside ototoxicity

C[S+]([O-])c1ccc(-c2nc(-c3ccc(F)cc3)c(-c3ccncc3)[nH]2)cc1 (centres unmarked) [SB-203580, 4-(4-Fluorophenyl)-2-(4-methylsulfinylphenyl)-5-(4-pyridyl) 1H-imidazole]
apoptosis in cochlear culture (cochlear culture): apoptosis is decreased
